We go through 15 molecules from PubChem BioAssay (NCI).

Holding throughout (assay): inhibition of tumour cell growth, NCI panel, 48 h
The subject of assay [1] is COLO 205 colon.
The test system of assay [2] is HOP-62 NSCLC.
Assay [3] deals with HOP-92 NSCLC.
Assay [4] has as its system MDA-MB-231 breast.
Assay [5] relates to MOLT-4 leukemia.
Assay [6] deals with NCI-H226 lung.
The test system of assay [7] is OVCAR-3 ovarian.
Assay [8] deals with OVCAR-8 ovarian.
Assay [9] concerns SF-268 CNS.
Assay [10] deals with SK-OV-3 ovarian.

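Step 1: Grow cells in 96-well plates. Step 2: Expose to compound for 48 hours at 5 concentrations. Step 3: Interpolate endpoints linearly; if unreached, use highest concentration. TGI denotes the concentration required for complete inhibition of growth.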 Bounds are passed on as bounds.

In the case of `Nc1nn2cc(-c3ccccc3)[n+](CC(=O)c3ccccc3)c2s1`, the TGI was 29.3 µM in assay [1]; 87.5 µM in assay [2]; 35.4 µM in [3]; > 100 µM in assay [4]; 51.2 µM in [5]; > 100 µM in [6]. Also, the TGI is 71.3 µM in assay [7], > 100 µM in [8], 50.6 µM in assay [9] and > 100 µM in [10].
Consider `CCOC(=O)CCN1C(=O)c2c(NC(=O)C(=O)O)cccc2S1(=O)=O`, for which the TGI in assay [1], in assay [2], in assay [3], in [4], in [5] and in assay [6] was > 100 µM each time. Moreover, the TGI in assay [8], in [9] and in assay [10] was > 100 µM each time.
For the molecule `CCOC(=O)N1c2c(c3ccccc3n2C(=O)OCC)C(=O)C(OC)N1C(=O)OCC` (stereo unspecified), the TGI was 28.9 µM in [1]; > 100 µM in assay [2]; > 100 µM in assay [3]; 83.6 µM in assay [4]; 50.8 µM in assay [5]; > 100 µM in [6]. The TGI in assay [7], in assay [8] and in [10] was > 100 µM in each case.
In the case of `CSC(=N/N=C(\C)c1ccc(S(=O)(=O)N(C)c2ccccc2)cc1)SC`, the TGI in [1], in assay [2], in assay [3], in assay [4], in [5] and in assay [6] was > 100 µM in each case. Moreover, the TGI in [7], in assay [8], in [9] and in assay [10] was > 100 µM throughout.
Take `Cc1cc(=O)oc2c(CN(CCCl)CCCl)c(O)ccc12`: the TGI in [1] is 71.7 µM; in [2] it was > 100 µM; in assay [3], > 100 µM; in assay [4] it was > 100 µM; in assay [5] it was 98.8 µM; in assay [6] it was > 100 µM. Besides, the TGI in [7], in [8] and in assay [9] was > 100 µM each time.
Turning to `COc1cc2c3c4[n+](cc2c(OC)c1OC)CCC4CCC3` (stereo unspecified), the TGI was > 84.7 µM in assay [1]; > 100 µM in assay [2]; > 100 µM in [3]; > 100 µM in assay [4]; > 100 µM in assay [5]; > 100 µM in [6]. For the same molecule, the TGI in [7], in assay [8], in assay [9] and in assay [10] was > 100 µM throughout.
On to `CCOC(=O)C1=C(C)N(c2ccc(Cl)cc2)C2(O)C=CC(=O)C3C(=O)N(c4ccccc4)C(=O)C132` (stereo unspecified), for which the TGI turned out to be 3.26 µM in assay [1]; 4.19 µM in [2]; 1.96 µM in [3]; 4.59 µM in assay [4]; 3.72 µM in assay [5]; 2.75 µM in assay [7]. Further, the TGI amounted to 6.32 µM in assay [8], 4.54 µM in assay [9] and 8.27 µM in assay [10].
`Cc1nc2ccccc2nc1N1CCCC1`: the TGI in assay [1], in assay [2], in assay [3], in assay [4], in assay [6] and in [8] was > 100 µM each time. For the same molecule, the TGI in assay [9] and in assay [10] was > 100 µM throughout.
As for `O=C1/C(=C/Cc2ccco2)N=C(c2ccccc2)N1c1nc2c(Cl)cc(Cl)cc2s1`, the TGI in assay [1] is > 100 µM; in assay [2], > 100 µM; in [3] it was 87.4 µM; in assay [4], 82.2 µM; in assay [5] it was 33.3 µM; in assay [7], 52.6 µM. The TGI in assay [8] is > 100 µM; in assay [9] it was 89.2 µM; in assay [10], > 100 µM.
On to `CCCCCC(=O)OCC1(CO)C/C(=C/CC(C(C)C)C(C)C)C(=O)O1` (stereo unspecified), for which the TGI in [1], in [2], in [3], in [4], in assay [6] and in [7] was > 75 µM throughout. Moreover, the TGI in assay [8], in [9] and in assay [10] was > 75 µM throughout.
As to `CC1=CCC(=O)[C@]2(C)C(CC(=O)O)[C@]3(C)C4=C(C)C(c5ccoc5)C[C@@H]4O[C@@H]3[C@H](O)[C@@H]12` (stereo partly specified), the TGI in assay [1], in assay [3], in [4], in assay [5], in assay [7] and in assay [8] was > 100 µM throughout. Also, the TGI in [9] and in assay [10] was > 100 µM each time.
Consider `CC1CC2OC(=N)C1(C#N)C2(C#N)C#N` (stereo unspecified), for which the TGI is 24.8 µM in [1]; 35.2 µM in assay [2]; 36 µM in assay [3]; 38.4 µM in assay [4]; > 100 µM in assay [5]; > 100 µM in assay [6]. The TGI in [8] is > 100 µM; in [9] it was 66.3 µM; in assay [10], > 100 µM.
On to `COc1ccc(-c2nc3ncccn3c2-c2ccc(S(C)(=O)=O)cc2)cc1`, for which the TGI in [1], in assay [2], in assay [3], in assay [4], in [5] and in assay [7] was > 100 µM throughout. In addition, the TGI in assay [8], in [9] and in assay [10] was > 100 µM each time.
As for `NS(=O)(=O)c1ccc(NS(=O)(=O)c2ccc(NC(=O)N(c3ccccc3)c3ccccc3)cc2)cc1`, the TGI in [1], in [2], in [3], in [4], in assay [5] and in [6] was > 100 µM throughout. For the same molecule, the TGI was 50.2 µM in [7], > 100 µM in assay [8] and > 100 µM in [9].
As to `C(=N\Nc1nnc(-c2nnc(N/N=C/c3ccccc3)o2)o1)/c1ccccc1`, the TGI in assay [1], in assay [2], in [3], in assay [4], in assay [5] and in assay [6] was > 10 µM each time. The TGI in assay [7], in assay [8] and in assay [9] was > 10 µM in each case.
